Assay results reported in article PMC7033309, “π-Helix controls activity of oxygen-sensing diguanylate cyclases” (Bioscience Reports, 2020).

Target: T1, PccGCS (Pectobacterium carotovorum, UniProt C6D9C2, H237A/K238A)
T1 construct: gene PC1_2619; full-length PccGCS H237A/K238A (His-tagged)
T1 sequence (C6D9C2 1-471 H237A/K238A): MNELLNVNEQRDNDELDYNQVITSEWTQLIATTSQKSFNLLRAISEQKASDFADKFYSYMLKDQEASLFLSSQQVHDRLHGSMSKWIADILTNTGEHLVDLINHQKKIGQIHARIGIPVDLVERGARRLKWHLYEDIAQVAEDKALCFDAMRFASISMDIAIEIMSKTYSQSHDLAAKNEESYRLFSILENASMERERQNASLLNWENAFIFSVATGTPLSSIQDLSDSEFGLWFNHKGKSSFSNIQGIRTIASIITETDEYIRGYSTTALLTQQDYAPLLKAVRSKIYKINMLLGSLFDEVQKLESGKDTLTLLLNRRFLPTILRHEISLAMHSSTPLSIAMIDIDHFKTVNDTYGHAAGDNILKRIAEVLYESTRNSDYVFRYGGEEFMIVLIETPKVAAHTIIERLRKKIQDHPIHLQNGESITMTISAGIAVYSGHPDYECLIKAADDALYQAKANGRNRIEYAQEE
Test: isothermal titration calorimetry, […]°C
Format: binding

Question: With Nc1nc2c(ncn2[C@@H]2O[C@H](COP(=O)(O)CP(=O)(O)OP(=O)(O)O)[C@@H](O)[C@H]2O)c(=O)[nH]1 [GpCpp, guanosine-5′-[(α,β)-methyleno]triphosphate] as the compound, how does the Kd read?
Answer: The Kd was 9.7 ± 3.9 µM.
